# Measurements as given in US20250108036A1, “COMPOSITIONS FOR REMOVING SENESCENT CELLS AND USES THEREOF” (LIFECEUTIX CO., LTD., priority 2021, published 2025).
# Key:
# [1] = read-out: MST Kd; cited from earlier work
# [2] = system: foreskin cells in which aging was induced by doxorubicin; assay: cell viability of senescent foreskin cells with caspase inhibitor QVD-Oph (Example 10, Table 61); assay type: cell-based, human; conditions: QVD-Oph 20 μM alone; doxorubicin-senescent foreskin cells
# [3] = system: foreskin cells in which senescence was induced by doxorubicin; assay: CellTiter-Glo cell viability of doxorubicin-induced senescent foreskin cells (Examples 1-2, 10, 11, 13; Tables 4, 63, 65); assay type: cell-based, human; conditions: for cell death, senescent cells: 30 μM, 3 days; for viability at 1.1 µM / viability at 10 µM / viability at […] / viability at 30 µM: Homo sapiens, 72 h, doxorubicin-induced senescent foreskin cells, CellTiter-Glo, 0 μM = 100, read-out: Survival (%); for viability at 1.1 µM: 1.1 μM test compound; for viability at 10 µM: 10 μM test compound; for viability at […]: […] test compound; for viability at 30 µM: 30 μM test compound
# Procedure: (§1) After 3 days, cell viability was measured using CellTiter-Glo Luminescent Cell Viability Assay (Promega) or light microscopy.
# HMGN1 [4] = assay: HMGN1 ELISA in culture medium of foreskin cells (Examples 10, 11; Tables 62, 63, 64); assay type: cell-based, human; conditions: Homo sapiens, 30 μM test compound, doxorubicin-treated foreskin cells, DMSO = 100; read-out: HMGN1
# HMGN1 [5] = assay: HMGN1 ELISA in culture medium of A549 cancer cells (Example 12, Table 66); assay type: cell-based, human; conditions: Homo sapiens, A549, doxorubicin-induced senescent A549 cells, test compound 30 μM, ELISA, DMSO = 100; read-out: HMGN1 (amount of HMGN1 secreted in the cell culture)
# A549 = assay: CellTiter-Glo cell viability of senescent A549 cancer cells (Example 12, Table 67); assay type: cell-based, human; conditions: Homo sapiens, A549, doxorubicin-induced senescent A549 cancer cells, CellTiter-Glo, read-out: Survival (%); for viability at 1.1 µM: 1.1 μM test compound; for viability at 10 µM: 10 μM test compound; for viability at 30 µM: 30 μM test compound
# senescent foreskin cells = assay: survival of senescent foreskin cells treated with medium supernatant (secreted fluid) of compound-killed cells (Example 13, Tables 68, 69); assay type: cell-based, human; conditions: supernatant-treated cells: senescent cells, after 3 days
# [6] = system: normally proliferating foreskin cells; assay: survival of normally proliferating foreskin cells treated with medium supernatant (secreted fluid) of compound-killed cells (Example 13, Table 68); assay type: cell-based, human; conditions: after 3 days
# Procedure: After treating cells with the test compound at a high concentration that induces the death of most cells in both non-senescence-induced and senescence-induced cells, the cells were washed three times with PBS to remove the test compound, and replaced with fresh medium and cultured for an additional 3 hours at the time when the compound has entered into the cell but has not yet induced cell death (approximately 1 to 3 hours after compound treatment). During this additional culture, by checking with an optical microscope, etc., the medium supernatants containing secreted fluid from normally proliferating and senescent cells in which cell death was induced were obtained. The obtained medium supernatant was replaced with the medium of normally proliferating and senescent cells, respectively, and cell survival rate was measured after 3 days.
# [7] = system: foreskin cells in which senescence was not induced; assay: CellTiter-Glo growth of foreskin cells in which senescence was not induced (Tables 5, 12); conditions: 30 μM, 3 days
# Procedure: as §1
# p16, MMP3, IL6 = p16, MMP3, IL6 mRNA qRT-PCR in groin fat of obese mice given senescent cells killed by test compounds (Example 16, Table 72); assay type: in vivo, C57BL6J mice; conditions: obese mice administered senescent cells whose death was induced by the test compound
# Description: To obtain preadipocytes, groin fat tissue was collected from an 8-week-old female C57BL6J mouse (purchased from KRIBB Laboratory Animal Resource Center). The fat tissue was cut into small pieces and treated with collagenase to decompose the fat tissue, then centrifuged to collect the stromal vascular fraction (SVF) containing preadipocytes. It was washed with a washing medium (HBSS, purchased from GenDEPOT; 3.5% Albumin Fraction V, purchased from GenDEPOT; 100 U/ml Penicillin & Streptomycin, purchased from Invitrogen), mixed again, and extracted by filtering through a 100 μm nylon mesh. The isolated preadipocytes were cultured in the designated medium (DMEM, purchased from GenDEPOT; 20% FBS, purchased from GenDEPOT; 100 U/ml Penicillin & Streptomycin, purchased from Invitrogen). In the same manner as Example 1, cells were treated with doxorubicin at a concentration of 250 nM for 24 hours and cultured for an additional 21 days to induce cell senescence. Cells were treated with doxorubicin at a concentration of 250 nM for 24 hours and cultured for an additional 21 days to induce cell senescence. By treating the test compounds in the same manner as in Example 13, it was confirmed using an optical microscope that the death of most senescent cells was induced. The killed preadipocytes were washed using PBS (purchased from Welgene) and then mixed with PBS at a concentration of 5×10^5 cells/200 μl. It was administered subcutaneously to 8-week-old female C57BL6J mice (purchased from KRIBB Laboratory Animal Resource Center). At 7 and 10 days after administration of the killed senescent cells, 2 million senescent preadipocytes were mixed in 200 μl of PBS and administered into the abdominal cavity of mice. After administration of killed senescent cells, obesity was induced in mice with a high-fat diet (DIO) for 8 weeks in the same manner as in Example 9-1. Afterwards, the mouse was sacrificed in the same manner as in Example 7-2, total RNA was extracted from the groin fat tissue, and qRT-PCR was performed and analyzed using the synthesized cDNA. […] The mRNA amount of p16, MMP3, and IL6 without administration of senescent cells whose death was induced by the test compounds was calculated as 100%, and the amount of p16, MMP3, and IL6 after administration of the senescent cells whose death was induced by the test compounds was compared with them. Furthermore, an open field test was performed to analyze aging-related frailty in mice using the same method as Example 7-7. […] The amount of activity evaluation without administration of senescent cells whose death was induced by the test compounds was calculated as 100% and compared it with the amount of activity evaluation after administration of senescent cells whose death was induced by the test compounds. […]
# [8] = open field test in obese mice given senescent cells killed by test compounds (Example 16, Table 72); assay type: in vivo, C57BL6J mice; conditions: obese mice administered senescent cells whose death was induced by the test compound
# Description: To obtain preadipocytes, groin fat tissue was collected from an 8-week-old female C57BL6J mouse (purchased from KRIBB Laboratory Animal Resource Center). The fat tissue was cut into small pieces and treated with collagenase to decompose the fat tissue, then centrifuged to collect the stromal vascular fraction (SVF) containing preadipocytes. It was washed with a washing medium (HBSS, purchased from GenDEPOT; 3.5% Albumin Fraction V, purchased from GenDEPOT; 100 U/ml Penicillin & Streptomycin, purchased from Invitrogen), mixed again, and extracted by filtering through a 100 μm nylon mesh. The isolated preadipocytes were cultured in the designated medium (DMEM, purchased from GenDEPOT; 20% FBS, purchased from GenDEPOT; 100 U/ml Penicillin & Streptomycin, purchased from Invitrogen). In the same manner as Example 1, cells were treated with doxorubicin at a concentration of 250 nM for 24 hours and cultured for an additional 21 days to induce cell senescence. Cells were treated with doxorubicin at a concentration of 250 nM for 24 hours and cultured for an additional 21 days to induce cell senescence. By treating the test compounds in the same manner as in Example 13, it was confirmed using an optical microscope that the death of most senescent cells was induced. The killed preadipocytes were washed using PBS (purchased from Welgene) and then mixed with PBS at a concentration of 5×10^5 cells/200 μl. It was administered subcutaneously to 8-week-old female C57BL6J mice (purchased from KRIBB Laboratory Animal Resource Center). At 7 and 10 days after administration of the killed senescent cells, 2 million senescent preadipocytes were mixed in 200 μl of PBS and administered into the abdominal cavity of mice. After administration of killed senescent cells, obesity was induced in mice with a high-fat diet (DIO) for 8 weeks in the same manner as in Example 9-1. Afterwards, the mouse was sacrificed in the same manner as in Example 7-2, total RNA was extracted from the groin fat tissue, and qRT-PCR was performed and analyzed using the synthesized cDNA. […] The mRNA amount of p16, MMP3, and IL6 without administration of senescent cells whose death was induced by the test compounds was calculated as 100%, and the amount of p16, MMP3, and IL6 after administration of the senescent cells whose death was induced by the test compounds was compared with them. Furthermore, an open field test was performed to analyze aging-related frailty in mice using the same method as Example 7-7. […] The amount of activity evaluation without administration of senescent cells whose death was induced by the test compounds was calculated as 100% and compared it with the amount of activity evaluation after administration of senescent cells whose death was induced by the test compounds.
# [9] = supernatant from compound-treated medium without cells (No Cells)
# [10] = supernatant from death-induced proliferating foreskin cells (compound 30 μM)
# [11] = supernatant from death-induced senescent foreskin cells (compound 30 μM)
compound,measurement,setting,value
CCC(C)C(C(=O)OC(C)(C)C)N1C(=O)c2ccccc2C1=O (centres unmarked) [QW-050],Kd,[1],2430 nM
CC(C)[C@H](NC(=O)c1ccc2ccccc2n1)C(=O)N[C@@H](CC(=O)O)C(=O)COc1c(F)cccc1F [QVD],Survial (%),[2],105.1 (±4.7) %
COc1ccc(N(C(=O)CCl)C(C(=O)NCCc2ccccc2)c2cccs2)cc1Cl (centres unmarked) [LX-402],"cell death, senescent cells",[3],induced the death of most cells
same,viability at 1.1 µM,[3],67.2%
same,viability at 10 µM,[3],4.5%
same,viability at […],[3],27%
same,activity at 30 µM,HMGN1 [4],298%
same,activity at 30 µM,HMGN1 [5],340%
same,viability at 1.1 µM,A549,71.6%
same,Survival (%),senescent foreskin cells; [9],98 (±3.6) %
same,Survival (%),senescent foreskin cells; [10],31 (±1.2) %
same,Survival (%),senescent foreskin cells; [11],48.3 (±2.1) %
same,Survival (%),[6]; [9],97.1 (±5.9) %
same,Survival (%),[6]; [10],78.1 (±3.8) %
same,Survival (%),[6]; [11],101.1 (±2.2) %
same,"cell death, normally proliferating cells",[7],induced the death of most cells
CC(C)(C)OC(=O)CCN1C(=O)c2ccccc2C1=O [QW-011],Kd,[1],926 nM
Cc1onc(C(=O)N2CCN(C(c3ccc(Cl)cc3)c3ccc(Cl)cc3)CC2)c1N(O)O [LX-401],"cell death, senescent cells",[3],induced the death of most cells
same,viability at 1.1 µM,[3],20.4%
same,viability at 10 µM,[3],10.6%
same,viability at 30 µM,[3],7.8%
same,viability at […],[3],12.4%
same,activity at 30 µM,HMGN1 [4],263%
same,activity at 30 µM,HMGN1 [5],277%
same,viability at 1.1 µM,A549,89.7%
same,viability at 10 µM,A549,42.1%
same,viability at 30 µM,A549,16.8%
same,Survival (%),senescent foreskin cells; [9],101.1 (±5.5) %
same,Survival (%),senescent foreskin cells; [10],48.2 (±4.2) %
same,Survival (%),senescent foreskin cells; [11],42.2 (±4)^ %
same,Survival (%),[6]; [9],97.9 (±7.2) %
same,Survival (%),[6]; [10],88.1 (±4.2) %
same,Survival (%),[6]; [11],95.1 (±5.7) %
same,"cell death, normally proliferating cells",[7],induced the death of most cells
CC(C)(C)OC(=O)C(C)(C)N1C(=O)c2ccccc2C1=O [QW-020],Kd,[1],2140 nM
CC(C(=O)OC(C)(C)C)N1C(=O)c2ccccc2C1=O (centres unmarked) [QW-023],Kd,[1],1780 nM
CC(C)(C)OC(=O)CCCN1C(=O)c2ccccc2C1=O [LX-407],viability at 1.1 µM,[3],15.9%
same,activity at 30 µM,HMGN1 [4],299%
same,activity at 30 µM,HMGN1 [5],339%
same,viability at 1.1 µM,A549,29.4%
same,Kd,[1],399 nM
CC(C)(C)OC(=O)CCCCCN1C(=O)c2ccccc2C1=O [QW-029],Kd,[1],2100 nM
"C[C@@H]1CC[C@@]23C[C@H](O)C(=O)[C@@]2(O)[C@]1(C)[C@H](OC(=O)CCl)C[C@@H](C1=CCn2c(=O)n(-c4ccccc4)c(=O)n2C1)[C@@H]3C [LX-1801, (2S,3aS,4S,5R,7R,8S,8aS,11R)-7-(1,3-Dioxo-2-phenyl-2,3,5,8-tetrahydro-1H-[1,2,4]triazolo[1,2-a]pyridazin-6-yl)-2,3a-dihydroxy-4,8,11-trimethyl-3-oxooctahydro-1H-4,8a-propanoazulen-5-yl 2-Chloroacetate]",viability at 1.1 µM,[3],8.7%
same,activity at 30 µM,HMGN1 [4],291%
same,activity at 30 µM,HMGN1 [5],295%
same,viability at 1.1 µM,A549,60.6%
same,viability at 10 µM,A549,25.1%
same,IL6 mRNA (%),"p16, MMP3, IL6",56.4 (±12.4) %
same,MMP3 mRNA (%),"p16, MMP3, IL6",67.8 (±13.1) %
same,p16 mRNA (%),"p16, MMP3, IL6",62.5 (±9.4) %
same,Open Field Test Time in Center (%),[8],173.4 (±18.6) %
CC(C)(C)OC(=O)C(N1C(=O)c2ccccc2C1=O)C(C)(C)C (centres unmarked) [QW-034],Kd,[1],979 nM
"COCC1(CO)C(=O)C2CCN1CC2 (centres unmarked) [LX-701, Eprenetapopt, reference compound]",viability at 1.1 µM,[3],99.3%
same,viability at 10 µM,[3],45.9%
same,viability at 30 µM,[3],27.4%
same,viability at […],[3],100%
same,activity at 30 µM,HMGN1 [4],277%
same,activity at 30 µM,HMGN1 [5],297%
same,viability at 1.1 µM,A549,99.2%
same,viability at 10 µM,A549,91%
same,viability at 30 µM,A549,11.3%
same,IL6 mRNA (%),"p16, MMP3, IL6",68.2 (±14.3) %
same,MMP3 mRNA (%),"p16, MMP3, IL6",72.5 (±9.2) %
same,p16 mRNA (%),"p16, MMP3, IL6",81.9 (±6.8) %
same,Open Field Test Time in Center (%),[8],181.8 (±27.1) %
